Among the data in PubChem BioAssay AID1963973 (Molecular Pharmacology Branch, DTP, NCI, 2024) are IC50 and viability, T/C values, retold here.

A value given as a limit tells only on which side of the number the result lay.

The test has as its system 883617-216-R-J1-PDC tumor spheroids, viability. As to the kind of experiment: Anticancer human tumor 883617-216-R-J1-PDC patient-derived bladder carcinoma cell line growth inhibition [PI3K]. To be noted: spheroids with HUVEC and MSC; for viability, T/C: stronger effect = lower value. A digest of the protocol:
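Stroma-containing spheroids: tumor line, pooled-donor HUVEC, hMSC. Treatments: targeted agents with PI3K inhibitors. Dosing: clinically relevant, half-log spacing, 10 microM ceiling without known Cmax. Read-out: cell viability.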

The mark [1] stands for this setting: curve of first compound, second compound 0.00316 µM.
[2] abbreviates: curve of first compound, second compound 0.01 µM.
The mark [3] stands for this setting: curve of first compound, second compound 0.0316 µM.
[4] abbreviates: curve of first compound, second compound 0.1 µM.
The mark [5] stands for this setting: curve of first compound, second compound 0.316 µM.
[6] abbreviates: curve of first compound, second compound 1 µM.
Where [7] appears, read: second compound 0.00316 µM, first compound 0.0316 µM.
Where [8] appears, read: second compound 0.00316 µM, first compound 0.1 µM.
Setting [9] is: second compound 0.01 µM, first compound 0.0316 µM.
[10] abbreviates: second compound 0.01 µM, first compound 0.1 µM.
The mark [11] stands for this setting: second compound 0.0316 µM, first compound 0.0316 µM.
The mark [12] stands for this setting: second compound 0.0316 µM, first compound 0.1 µM.
Setting [13] is: second compound 0.1 µM, first compound 0.0316 µM.
Setting [14] is: second compound 0.1 µM, first compound 0.1 µM.
The mark [15] stands for this setting: second compound 0.316 µM, first compound 0.0316 µM.
[16] abbreviates: second compound 0.316 µM, first compound 0.1 µM.
The mark [17] stands for this setting: second compound 1 µM, first compound 0.0316 µM.
The mark [18] stands for this setting: second compound 1 µM, first compound 0.1 µM.
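Also: spheroids exposed to agents for 7 days before the viability read.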

Broadly, the IC50 is the concentration at which inhibition is half-maximal. In general, viability, T/C refers to the result in the treated group divided by that in the control group, in per cent. Take `Cn1ncnc1[C@H]1c2n[nH]c(=O)c3cc(F)cc(c23)N[C@@H]1c1ccc(F)cc1` + CC(Nc1ccc2c(c1)OCCn1cc(N3C(=O)OCC3C(F)F)nc1-2)C(N)=O: the half-maximal inhibitory concentration (IC50) is, setting by setting: under setting [1], over 100 nM; under setting [2], over 100 nM; under setting [3], 5.36 nM; under setting [4], under 0.316 nM; under setting [5], under 0.316 nM; under setting [6], under 0.316 nM. In addition, the viability, T/C runs as follows: (second compound 0.00316 µM, first compound 0.000316 µM) 84.3%; (second compound 0.00316 µM, first compound 0.001 µM) 83.1%; (second compound 0.00316 µM, first compound 0.00316 µM) 89%; (second compound 0.00316 µM, first compound 0.01 µM) 78.3%; under setting [7], 63%; under setting [8], 63.2%. The viability, T/C runs as follows: (second compound 0.01 µM, first compound 0.000316 µM) 83%; (second compound 0.01 µM, first compound 0.001 µM) 94.6%; (second compound 0.01 µM, first compound 0.00316 µM) 79.3%; (second compound 0.01 µM, first compound 0.01 µM) 69%; under setting [9], 64.9%; under setting [10], 59.5%. Besides, the viability, T/C was 69.6% (second compound 0.0316 µM, first compound 0.000316 µM); 79.7% (second compound 0.0316 µM, first compound 0.001 µM); 54.2% (second compound 0.0316 µM, first compound 0.00316 µM); 50% (second compound 0.0316 µM, first compound 0.01 µM); 44.2% under setting [11]; 40.6% under setting [12]. For the same compound, the viability, T/C by setting is: (second compound 0.1 µM, first compound 0.000316 µM) 43.4%; (second compound 0.1 µM, first compound 0.001 µM) 45.1%; (second compound 0.1 µM, first compound 0.00316 µM) 43.7%; (second compound 0.1 µM, first compound 0.01 µM) 38.2%; under setting [13], 32.1%; under setting [14], 31.9%. The viability, T/C is 25.7% (second compound 0.316 µM, first compound 0.000316 µM); 25.3% (second compound 0.316 µM, first compound 0.001 µM); 25.8% (second compound 0.316 µM, first compound 0.00316 µM); 28.6% (second compound 0.316 µM, first compound 0.01 µM); 22.8% under setting [15]; 19.1% under setting [16]. For the same compound, the viability, T/C by setting is: (second compound 1 µM, first compound 0.000316 µM) 18.5%; (second compound 1 µM, first compound 0.001 µM) 15.8%; (second compound 1 µM, first compound 0.00316 µM) 13%; (second compound 1 µM, first compound 0.01 µM) 14.6%; under setting [17], 13.5%; under setting [18], 10.8%.

Consider `CC1(C)CCC(Nc2ncc(C(F)(F)F)c(-c3c[nH]c4c(P(C)(C)=O)c(C#N)ccc34)n2)CN1` (stereo not given) + COc1c(OCCCN2CCOCC2)ccc2c3n(c(=NC(=O)c4cnc(N)nc4)nc12)CCN3, for which the IC50 runs as follows: under setting [1], under 31.6 nM; under setting [2], under 31.6 nM; under setting [3], under 31.6 nM; under setting [4], under 31.6 nM; under setting [5], under 31.6 nM; under setting [6], under 31.6 nM. For the same compound, the viability, T/C is, setting by setting: under setting [7], 30.3%; under setting [8], 35%; (second compound 0.00316 µM, first compound 0.316 µM) 33%; (second compound 0.00316 µM, first compound 1 µM) 32.9%; (second compound 0.00316 µM, first compound 3.16 µM) 13.7%; (second compound 0.00316 µM, first compound 10 µM) 0.49%. For the same compound, the viability, T/C is 31.4% under setting [9]; 29.6% under setting [10]; 24.3% (second compound 0.01 µM, first compound 0.316 µM); 23.4% (second compound 0.01 µM, first compound 1 µM); 15.2% (second compound 0.01 µM, first compound 3.16 µM); 1.02% (second compound 0.01 µM, first compound 10 µM). Moreover, the viability, T/C by setting is: under setting [11], 20.4%; under setting [12], 22.8%; (second compound 0.0316 µM, first compound 0.316 µM) 24.7%; (second compound 0.0316 µM, first compound 1 µM) 21.6%; (second compound 0.0316 µM, first compound 3.16 µM) 9.22%; (second compound 0.0316 µM, first compound 10 µM) 0.59%. In addition, the viability, T/C by setting is: under setting [13], 15.2%; under setting [14], 12.5%; (second compound 0.1 µM, first compound 0.316 µM) 12.8%; (second compound 0.1 µM, first compound 1 µM) 10.9%; (second compound 0.1 µM, first compound 3.16 µM) 6.57%; (second compound 0.1 µM, first compound 10 µM) 1.66%. For the same compound, the viability, T/C reads like this: under setting [15], 5.18%; under setting [16], 4.62%; (second compound 0.316 µM, first compound 0.316 µM) 4.01%; (second compound 0.316 µM, first compound 1 µM) 4.88%; (second compound 0.316 µM, first compound 3.16 µM) 1.53%; (second compound 0.316 µM, first compound 10 µM) 0.09%. The viability, T/C is, setting by setting: under setting [17], 2.28%; under setting [18], 1.83%; (second compound 1 µM, first compound 0.316 µM) 1.8%; (second compound 1 µM, first compound 1 µM) 1.55%; (second compound 1 µM, first compound 3.16 µM) 0.47%; (second compound 1 µM, first compound 10 µM) 0.27%.

Turning to `CNC(=O)c1ccc(N2C(=S)N(c3ccc(C#N)c(C(F)(F)F)c3)C(=O)C2(C)C)cc1F`, the viability, T/C was 94.7% [middle of 4 runs] (compound 0.0316 µM), 99.7% [middle of 4 runs] (compound 0.316 µM), 98.9% [middle of 4 runs] (compound 1 µM) and 101% [middle of 4 runs] (compound 3.16 µM). In addition, the IC50 (curve of compound) was over 10000 nM.

In the case of `CCN1CCN(Cc2ccc(Nc3ncc(F)c(-c4cc(F)c5nc(C)n(C(C)C)c5c4)n3)nc2)CC1`, the viability, T/C (compound 0.00316 µM) was 92% [middle of 4 runs]; the viability, T/C (compound 0.01 µM) is 78.9% [middle of 4 runs]; the viability, T/C (compound 0.0316 µM) is 75.5% [middle of 4 runs]; the viability, T/C (compound 0.1 µM) was 59% [middle of 4 runs]; the viability, T/C (compound 0.316 µM) is 56.6% [middle of 4 runs]; the viability, T/C (compound 1 µM) was 47.2% [middle of 4 runs].
